From patent publication US7754741B2, “Pyridine derivatives as fungicidal compounds” (Bayer Cropscience S.A., priority 2003, dated 2010) come the findings set out here.

Test [1] has as its system Alternaria brassicae. Nature of the test: In vivo test on Alternaria brassicae (leaf spot of crucifers). The settings on record: Alternaria brassicae; dose 330 ppm; radish plants sprayed 24 hours before contamination; grading 6 to 7 days after contamination vs control plants; read-out: protection (good (at least 50%) to total). As to the method:
In Vivo Test on Alternaria brassicae (Leaf Spot of crucifers)
(§1) The active ingredient tested is prepared by potter homogenisation in a concentrated suspension type formulation at 100 g/l. This suspension is then diluted with water to obtain the desired active material concentration.
Radish plants (Pernot variety) in starter cups, sown on a 50/50 peat soil-pozzolana substrate and grown at 18-20° C., are treated at the cotyledon stage by spraying with the aqueous suspension described above.
(§2) Plants, used as controls, are treated with an aqueous solution not containing the active material.
After 24 hours, the plants are contaminated by spraying them with an aqueous suspension of Alternaria brassicae spores (40,000 spores per cm^3). The spores are collected from a 12-13-day-old culture.
The contaminated radish plants are incubated for 6-7 days at about 18° C., under a humid atmosphere.
Grading is carried out 6 to 7 days after the contamination, in comparison with the control plants.

The subject of test [2] is Botrytis cinerea. As to the kind of experiment: In vivo test on Botrytis cinerea (cucumber grey mould). The settings on record: Botrytis cinerea; dose 330 ppm; cucumber plants sprayed 24 hours before contamination; grading 5/7 days after contamination vs control plants; read-out: protection (good (at least 50%) to total). On the procedure:
In Vivo Test on Botrytis cinerea (Cucumber Grey Mould)
as §1
Cucumber plants (Marketer variety) in starter cups, sown on a 50/50 peat soil-pozzolana substrate and grown at 18-20° C., are treated at the cotyledon Z11 stage by spraying with the aqueous suspension described above. Plants, used as controls, are treated with an aqueous solution not containing the active material.
After 24 hours, the plants are contaminated by depositing drops of an aqueous suspension of Botrytis cinerea spores (150,000 spores per ml) on upper surface of the leaves. The spores are collected from a 15-day-old culture and are suspended in a nutrient solution composed of: • 20 g/L of gelatin • 50 g/L of cane sugar • 2 g/L of NH4NO3 • 1 g/L of KH2PO4
The contaminated cucumber plants are settled for 5/7 days in a climatic room at 15-11° C. (day/night) and at 80% relative humidity.
Grading is carried out 5/7 days after the contamination, in comparison with the control plants. Under these conditions, good (at least 50%) to total protection is observed at a dose of 330 ppm with the following compounds :B-7, B-8, B-13, B-14, C-3, C-12, C-13, C-14, C-15, C-16, D-4, D-5, E-4, H-1, H-2, H-4, H-7, H-9, H-22, J-1, J-2, J-3, J-19, J-31, J-32, J-33, J-34, J-35, J-37, J-39, J-43, J-44, R-1, R-10, R-23, R-24, R-26, R-31, V-1, V-8.

Test [3] has as its system Pyrenophora teres. Nature of the test: In vivo test on Pyrenophora teres (barley net blotch). The settings on record: Pyrenophora teres, 288 h; dose 330 ppm; barley plants sprayed 24 hours before contamination; grading 12 days after contamination vs control plants; read-out: protection (good (at least 50%) to total). As to the method:
In Vivo Test on Pyrenophora teres (Barley Net Blotch)
as §1
Barley plants (Express variety) in starter cups, sown on a 50/50 peat soil-pozzolana substrate and grown at 12° C., are treated at the 1-leaf stage (10 cm tall) by spraying with the aqueous suspension described above. Plants, used as controls, are treated with an aqueous solution not containing the active material.
After 24 hours, the plants are contaminated by spraying them with an aqueous suspension of Pyrenophora teres spores (12,000 spores per ml). The spores are collected from a 12-day-old culture The contaminated barley plants are incubated for 24 hours at about 20° C. and at 100% relative humidity, and then for 12 days at 80% relative humidity.

The test system of test [4] is Erysiphe graminis f. sp. tritici. Nature of the test: In vivo test on Erysiphe graminis f. sp. tritici (wheat powdery mildew). To be noted: Blumeria graminis, wheat plants sprayed 24 hours before contamination, grading 7 to 14 days after contamination vs control plants, read-out: protection (good (at least 50%) to total). On the procedure: In Vivo Test on Erysiphe graminis f. sp. tritici (Wheat Powdery Mildew)
as §1
Wheat plants (Audace variety) in starter cups, sown on 50/50 peat soil-pozzolana substrate and grown at 12° C., are treated at the 1-leaf stage (10 cm tall) by spraying with the aqueous suspension described above.
as §2
After 24 hours, the plants are contaminated by dusting them with Erysiphe graminis f. sp. tritici spores, the dusting being carried out using diseased plants. Grading is carried out 7 to 14 days after the contamination, in comparison with the control plants.
Under these conditions, good (at least 50%) to total protection is observed at a dose of 330 ppm with the following compounds: A-4, B-4, B-8, C-2, C-3, C-12, D-4, F-1, H-1, H-2, H-4, H-20, I-3, J-1, J-2, J-3, J-19, J-20, J-31, J-37, J-40, J-55, J-57, J-58, J-59, J-61, K-1, M-5, M-6, R-1, R-10, R-26, R-29, V-7.

For `Cn1cc(C(=O)NCCc2ncc(Cl)cc2F)c(C(F)F)n1` [Compound J-33], the pest or weed control at 330 ppm in test [1], in test [2] and in test [3] was not below 50% throughout.

Consider `Cc1cc(C(=O)NCCc2ncc(C(F)(F)F)cc2Cl)c(C)o1` [Compound B-7], for which the pest or weed control at 330 ppm in test [1], in test [2] and in test [3] was not below 50% throughout.

In the case of `Cn1cc(C(=O)NCCc2nc(Cl)c(Cl)cc2Cl)c(C(F)F)n1` [Compound J-34], the pest or weed control at 330 ppm in test [2] and in test [3] was not below 50% in each case.

With `O=C(NCCc1ncc(Cl)cc1F)c1cccnc1Cl` [Compound R-24], the pest or weed control at 330 ppm in test [1] and in test [2] was not below 50% in each case.

Take `O=C(NCCc1ncc(Cl)cc1Br)c1sccc1I` [Compound C-16]: the pest or weed control at 330 ppm in test [1], in test [2] and in test [3] was not below 50% in each case.

As for `CON=C(C)c1cnc(CCNC(=O)c2cccnc2Cl)c(Cl)c1` [Compound R-23], the pest or weed control at 330 ppm in test [1], in test [2] and in test [3] was not below 50% each time.

For the molecule `Cc1cc(Br)cnc1CCNC(=O)c1cn(C)nc1C(F)F` [Compound J-32], the pest or weed control at 330 ppm in test [1], in test [2] and in test [3] was not below 50% each time.

Turning to `Cc1ccsc1C(=O)NCCc1ncc(C(F)(F)F)cc1Cl` [Compound C-3], the pest or weed control at 330 ppm in test [4], in test [1], in test [2] and in test [3] was not below 50% in each case.

Consider `Cc1cc(C(=O)NCCc2ncc(C(F)(F)F)cc2Cl)c(C(F)(F)F)o1` [Compound B-8], for which the pest or weed control at 330 ppm in test [4], in test [1], in test [2] and in test [3] was not below 50% each time.

Consider `Cn1cc(C(=O)NCCc2ncc(Cl)cc2Br)c(C(F)F)n1` [Compound J-39], for which the pest or weed control at 330 ppm in test [1], in test [2] and in test [3] was not below 50% each time.

Regarding `Cc1nn(C)c(F)c1C(=O)NCCc1ncc(C(F)(F)F)cc1Cl` [Compound J-1], the pest or weed control at 330 ppm in test [4], in test [1], in test [2] and in test [3] was not below 50% each time.

As to `O=C(NCCc1ncc(Cl)cc1Cl)c1sccc1I` [Compound C-13], the pest or weed control at 330 ppm in test [1], in test [2] and in test [3] was not below 50% each time.

As for `Cc1cscc1C(=O)NCCc1ncc(C(F)(F)F)cc1Cl` [Compound D-5], the pest or weed control at 330 ppm in test [1], in test [2] and in test [3] was not below 50% each time.

For the molecule `Cc1nn(C)cc1C(=O)NCCc1ncc(C(F)(F)F)cc1Cl` [Compound J-2], the pest or weed control at 330 ppm in test [4], in test [1], in test [2] and in test [3] was not below 50% in each case.

`O=C(NCCc1ncc(C(F)(F)F)cc1Cl)c1sccc1I` [Compound C-12]: the pest or weed control at 330 ppm in test [4], in test [1], in test [2] and in test [3] was not below 50% in each case.

Turning to `O=C(NCCc1ncc(C(F)(F)F)cc1Cl)c1cccnc1Cl` [Compound R-1], the pest or weed control at 330 ppm in test [4], in test [1], in test [2] and in test [3] was not below 50% each time.

Consider `Cc1nn(C)cc1C(=O)NCCc1ncc(Cl)cc1Cl` [Compound J-19], for which the pest or weed control at 330 ppm in test [4], in test [1], in test [2] and in test [3] was not below 50% throughout.

On to `Cn1cc(C(=O)NCCc2ncc(C(F)(F)F)cc2Cl)c(Cl)n1` [Compound J-57], for which the pest or weed control at 330 ppm in test [4] and in test [3] was not below 50% in each case.

For the molecule `Cn1nc(C(=O)NCCc2ncc(C(F)(F)F)cc2Cl)c(Br)c1[N+](=O)[O-]` [Compound I-3], the pest or weed control at 330 ppm in test [4], in test [1] and in test [3] was not below 50% in each case.

Turning to `Cc1onc(-c2c(Cl)cccc2Cl)c1C(=O)NCCc1ncc(C(F)(F)F)cc1Cl` [Compound M-5], the pest or weed control at 330 ppm in test [4] and in test [1] was not below 50% each time.

Consider `Cn1cc(C(=O)NCCc2ncc(C(F)(F)F)cc2Cl)c(I)n1` [Compound J-58], for which the pest or weed control at 330 ppm in test [4] and in test [3] was not below 50% in each case.

As for `Cc1c(F)c(F)nc(CCNC(=O)c2cn(C)nc2C(F)F)c1F` [Compound J-40], the pest or weed control at 330 ppm in test [4] and in test [3] was not below 50% throughout.

For `Cc1onc(-c2c(F)cccc2Cl)c1C(=O)NCCc1ncc(C(F)(F)F)cc1Cl` [Compound M-6], the pest or weed control at 330 ppm in test [4] and in test [1] was not below 50% in each case.

With `Cc1cc(C(=O)NCCc2ncc(C(F)(F)F)cc2Cl)n(C(C)(C)C)n1` [Compound K-1], the pest or weed control at 330 ppm in test [4] was not below 50%.

Regarding `O=C(NCCc1ncc(C(F)(F)F)cc1Cl)c1ccoc1I` [Compound B-14], the pest or weed control at 330 ppm in test [1], in test [2] and in test [3] was not below 50% in each case.

Turning to `Cc1occc1C(=O)NCCc1ncc(Cl)cc1Cl` [Compound B-13], the pest or weed control at 330 ppm in test [1], in test [2] and in test [3] was not below 50% each time.

As for `O=C(NCCc1ncc(Cl)cc1F)c1sccc1I` [Compound C-15], the pest or weed control at 330 ppm in test [2] and in test [3] was not below 50% in each case.

Consider `O=C(NCCc1ncc(C(F)(F)F)cc1Cl)c1sccc1Cl` [Compound C-2], for which the pest or weed control at 330 ppm in test [4] and in test [1] was not below 50% in each case.

`Cn1cccc1C(=O)NCCc1ncc(C(F)(F)F)cc1Cl` [Compound F-1]: the pest or weed control at 330 ppm in test [4] is not below 50%.

Take `Cn1cc(C(=O)NCCc2nc(Cl)c(Cl)cc2Cl)c(C(F)(F)F)n1` [Compound J-20]: the pest or weed control at 330 ppm in test [4] and in test [3] was not below 50% throughout.

As to `Cc1oc(C(C)(C)C)cc1C(=O)NCCc1ncc(C(F)(F)F)cc1Cl` [Compound B-4], the pest or weed control at 330 ppm in test [4] and in test [1] was not below 50% each time.

For `O=C(NCCc1ncc(C(F)(F)F)cc1Cl)c1occc1Br` [Compound A-4], the pest or weed control at 330 ppm in test [4], in test [1] and in test [3] was not below 50% throughout.
